Earlier results, collected in patent US7235541B2, “Neurokinin antagonists for use as medicaments” (Astrazeneca AB, priority 2000, dated 2007).
Where two headings read alike, the source gives them in different places. Peptide text beside a SMILES is read from it.

Experiments:
[1] = Light-dark box
[2] = Marmoset human intruder; Walsh et al., Psychopharmacology 1995
[3] = Elevated plus-maze
[4] = Forced swim test (depression model); only at 30 mg/kg bid; Vassout et al, Neuropeptides 1994
[5] = Walsh et al., Psychopharmacology 1995
[6] = Stratton et al., Eur. J. Pharmacol. 1993
[7] = Teixeira et al., Eur J Pharmacol 1996

SMILES | Outcome [1, 5] | Outcome [2] | Outcome [1, 6] | Outcome [3, 7] | other results
COC1(C[S@@+]([O-])c2ccccc2)CCN(CCc2c[nH]c3ccc(F)cc23)CC1 [GR159897] | anxiolytic | anxiolytic |  |  | 
Cc1cc(C)cc(C(=O)N2CC[C@H](NCc3ccnc4ccccc34)C[C@H]2Cc2ccccc2)c1 [CGP 49823] |  |  |  |  | Outcome (Social interaction test, Vassout et al, Neuropeptides 1994): anxiolytic; Outcome (Social interaction, File, Pharm Bio B 1997): anxiolytic; Outcome ([3]; Vassout et al, Neuropeptides 1994): inactive; Outcome [4]: antidepressant
CC(=O)NC1(c2ccccc2)CCN(CC[C@H](CN(C)C(=O)c2ccccc2)c2ccc(Cl)c(Cl)c2)CC1 [SR48968] | anxiolytic | anxiolytic | anxiolytic | anxiolytic | 
C[C@H](NC(=O)CNC(=O)C1CCCCC1)C(=O)N[C@H](Cc1c[nH]c2ccccc12)C(=O)N[C@@H](Cc1ccccc1)C(=O)N(C)C [GR100679] (HELM PEPTIDE1{[O=C(C1CCCCC1)[*:2]].G.A.[dW].F.[CN(C)[*:1]]}$$$$V2.0) |  |  | anxiolytic |  | 
CN(Cc1ccccc1)C(=O)[C@H](Cc1ccc2ccccc2c1)NC(=O)[C@@H]1C[C@@H](O)CN1C(=O)c1cn(C)c2ccccc12 [FK888] |  |  |  | anxiolytic | 
